# Measurements from US9072741B2, “Methods of treating liver fibrosis and pre-cirrhosis with epidermal growth factor receptor inhibitors” (The General Hospital Corporation, priority 2009, dated 2015).
# Tested on: DEN-induced liver fibrosis/pre-cirrhosis
# Test: DEN-treated rats, treatment begun at 8, 12 or 15 weeks: Ishak score
# Assay type: in vivo, male Wistar rats
# Method: FIG. 8B is a bar graph depicting Ishak scores in male Wistar rats receiving weekly intraperitoneal injections of 50 mg/kg DEN for 18 weeks and vehicle only (n=8) or 2 mg/kg gefitnib (n=8) beginning at either 8, 12, or 15 weeks. *, significant.
# Male Wistar rats received weekly intraperitoneal injections of DEN (50 mg/kg) for 16 weeks. Rats received vehicle control or gefitinib (2 mg/kg) daily beginning at either 8, 12, or 15 weeks and lasting until 18 weeks. To assess the extent of liver disease at the start of each treatment, a subgroup of rats were sacrificed after a two-week washout of DEN and the liver was harvested and processed for analysis. Masson's trichrome stains of liver sections from each animal were analyzed by a blinded pathologist. After 8 weeks and 12 weeks of DEN administration, no macroscopic findings were observed on the surface of the liver (FIG. 8A). […] After 15 weeks of DEN administration, the rats had progressed to late stage cirrhosis which could be observed macroscopically on the surface of the liver (FIG. 8A) as well as microscopically. Rats receiving vehicle or gefitinib were sacrificed at 18 weeks after a two-week washout of DEN. The liver was harvested and processed for analysis. Masson's trichrome stains of liver sections from each animal were scored by a blinded pathologist by the method of Ishak. […]
compound,measurement,setting,value
"COc1cc2ncnc(Nc3ccc(F)c(Cl)c3)c2cc1OCCCN1CCOCC1 [gefitinib, 4-Quinazolinamine, N-(3-chloro-4-fluorophenyl)-7-methoxy-6-(3-(4-morpholinyl)propoxy)]",progression of liver fibrosis/pre-cirrhosis (Ishak),2 mg/kg daily beginning at 8 weeks until 18 weeks,inhibited the progression of liver fibrosis/pre-cirrhosis
same,progression of liver fibrosis/pre-cirrhosis (Ishak),2 mg/kg daily beginning at 12 weeks until 18 weeks,inhibited the progression of liver fibrosis/pre-cirrhosis
